Reference: the supplement of paper PMC10331698
± gives the standard deviation of the averaged measurements.

Assays:
Test in all cases: level (log10 ratio to DMSO vehicle control); higher = higher biomarker level / cell amount than vehicle control
Details in all cases: in DMSO
[1] = compound: O=S(=O)(O)C(F)(F)C(F)(F)C(F)(F)C(F)(F)C(F)(F)C(F)(F)C(F)(F)C(F)(F)F [Perfluorooctanesulfonic acid]
Protocol: (§1)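 BioMAP Diversity Plus panel of 12 human primary cell co-culture systems (3C, 4H, LPS, SAg, BT, BF4T, BE3C, CASM3C, HDF3CGF, KF3CT, MyoF, Mphg). Compounds were added 1 h before stimulation and left for 24 h (MyoF 48 h; BT 72 h for soluble read-outs or 6 d for IgG). Biomarkers were read by ELISA, cytotoxicity by SRB, PBMC viability and proliferation by Alamar Blue. Each well value was divided by the mean of 8 DMSO control wells on the same plate and log10 transformed; duplicate blinded samples were tested at 4 concentrations.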

Perfluorohexanoic acid = compound: O=C(O)C(F)(F)C(F)(F)C(F)(F)C(F)(F)C(F)(F)F [Perfluorohexanoic acid]
Protocol: as §1

[2] = compound: FC(F)(F)C(F)(F)C(F)(F)C(F)(F)C(F)(F)C(F)(F)C(F)(F)CCI [1-Iodo-1H,1H,2H,2H-perfluorononane]
Protocol: as §1

[3] = compound: O=C(O)C(F)(F)C(F)(F)C(F)(F)C(F)(F)C(F)(F)C(F)(F)C(F)(F)C(F)(F)C(F)(F)C(F)(F)C(F)(F)C(F)(F)C(F)(F)F [Perfluorotetradecanoic acid]
Protocol: as §1

[4] = compound: C=CC(=O)OCCC(F)(F)C(F)(F)C(F)(F)C(F)(F)F [2-(Perfluorobutyl)ethyl acrylate]
Protocol: as §1

Hexafluoroglutaric acid = compound: O=C(O)C(F)(F)C(F)(F)C(F)(F)C(=O)O [Hexafluoroglutaric acid]
Protocol: as §1

[5] = compound: O=S(=O)(O)C(F)(F)C(F)(F)C(F)(F)C(F)(F)C(F)(F)C(F)(F)C(F)(F)C(F)(F)F [Potassium perfluorooctanesulfonate]
Protocol: as §1

Test System	level (log10) ([1]; 6700 nM)	level (log10) ([1]; 20000 nM)	level (log10) ([1]; 60000 nM)	level (log10) (Perfluorohexanoic acid; 6700 nM)	level (log10) (Perfluorohexanoic acid; 20000 nM)	level (log10) (Perfluorohexanoic acid; 60000 nM)	level (log10) ([2]; 6700 nM)	level (log10) ([2]; 20000 nM)	level (log10) ([3]; 6700 nM)	level (log10) ([3]; 20000 nM)	level (log10) ([4]; 6700 nM)	level (log10) ([4]; 20000 nM)	level (log10) ([4]; 60000 nM)	level (log10) (Hexafluoroglutaric acid; 6700 nM)	level (log10) (Hexafluoroglutaric acid; 20000 nM)	level (log10) (Hexafluoroglutaric acid; 60000 nM)	level (log10) ([5]; 6700 nM)	level (log10) ([5]; 20000 nM)	level (log10) ([5]; 60000 nM)
BT:sIL-6	0.0325 ± 0.06	-0.0415 ± 0.046	-0.0185 ± 0.039	-0.0375 ± 0.079	0.013 ± 0.062	-0.037 ± 0.021	0.009 ± 0.017	-0.0575 ± 0.042	-0.0615 ± 0.052	-0.0545 ± 0.13	-0.063 ± 0.041	-0.153 ± 0.0028	-0.76 ± 0.15	-0.0105 ± 0.11	0.0275 ± 0.021	-0.0155 ± 0.088	0.0165 ± 0.042	0.0765 ± 0.016	-0.023 ± 0.11
BT:sIL-17A	0.13 ± 0.18	0.106 ± 0.098	0.0295 ± 0.025	0.009 ± 0.22	0.038 ± 0.075	-0.086 ± 0.068	0.0035 ± 0.1	-0.0305 ± 0.15	-0.111 ± 0.021	-0.059 ± 0.16	-0.217 ± 0.17	-0.465 ± 0.067	-1.03 ± 0.46	0.02 ± 0.073	-0.0205 ± 0.21	-0.0585 ± 0.12	0.023 ± 0.25	0.158 ± 0.1	-0.133 ± 0.022
BT:sIL-17F	-0.064 ± 0.14	-0.0825 ± 0.059	-0.009 ± 0.018	-0.081 ± 0.0014	-0.002 ± 0.081	-0.047 ± 0.031	0.062 ± 0.023	0.0585 ± 0.011	-0.019 ± 0.058	-0.0085 ± 0.028	-0.169 ± 0.0071	-0.393 ± 0.017	-0.673 ± 0.061	0.046 ± 0.071	0.0335 ± 0.05	-0.004 ± 0.0085	-0.085 ± 0.037	-0.06 ± 0.11	-0.072 ± 0.037
BT:sTNF-alpha	-0.047 ± 0.095	-0.0585 ± 0.054	0.0105 ± 0.079	-0.036 ± 0.05	-0.023 ± 0.081	-0.01 ± 0.11	0.018 ± 0.054	0.063 ± 0.12	0.014 ± 0.11	-0.082 ± 0.092	-0.095 ± 0.1	-0.192 ± 0.0085	-0.767 ± 0.3	0.026 ± 0.13	0.0415 ± 0.039	0.116 ± 0.039	0.003 ± 0.076	0.0225 ± 0.069	-0.039 ± 0.016
